Measured values published in ChEMBL document CHEMBL2176897, “Synthesis and biological evaluation (in vitro and in vivo) of cyclic arginine-glycine-aspartate (RGD) peptidomimetic-paclitaxel conjugates targeting integrin αVβ3” (J Med Chem, 2012).
pIC50: −log10 of the molar value. Activity calls are given as the source filed them. No cut-off for these calls is given here.

Experiments:
[1] = molecular target: Integrin alpha-V/beta-3 (Homo sapiens, UniProt P05106+P06756); assay: Competitive inhibition of biotinylated vitronectin to integrin alphaVbeta3 receptor after 3 hrs by microplate reader analysis; format: protein-complex assay
[2] = tested on: IGROV-1; assay: Cytotoxicity against human IGROV1 cells after 72 hrs by coulter counter analysis; format: functional, cell-based; details: IGROV-1, 72 h
[3] = tested on: PANC-1; assay: Cytotoxicity against human PANC1 cells after 72 hrs by coulter counter analysis; format: functional, cell-based; details: PANC-1, 72 h
[4] = tested on: IGROV-1; assay: Cytotoxicity against cisplatin-resistant human IGROV1/Pt1 cells after 72 hrs by coulter counter analysis; format: functional, cell-based; details: IGROV-1, 72 h
[5] = tested on: U2OS; assay: Cytotoxicity against human U2OS cells after 72 hrs by coulter counter analysis; format: functional, cell-based
[6] = tested on: SK-OV-3; assay: Cytotoxicity against human SKOV3 cells after 72 hrs by coulter counter analysis; format: functional, cell-based; details: SK-OV-3, 72 h
[7] = tested on: MIA PaCa-2; assay: Cytotoxicity against human MIAPaCa2 cells after 72 hrs by coulter counter analysis; format: functional, cell-based; details: MIA PaCa-2, 72 h
[8] = Cytostatic activity against human dermal fibroblasts assessed as growth inhibition at 64 to 1000 nM after 72 hrs by coulter counter analysis; details: skin fibroblast, 1 µM
[9] = molecular target: Integrin alpha-V/beta-5 (Homo sapiens, UniProt P06756+P18084); assay: Competitive inhibition of biotinylated vitronectin to integrin alphaVbeta5 receptor after 3 hrs by microplate reader analysis; format: protein-complex assay
[10] = Selectivity ratio of IC50 for integrin alphaVbeta5 receptor to IC50 for integrin alphaVbeta3 receptor
[11] = tested on: IGROV-1; assay: Antitumor activity against cisplatin-resistant human IGROV1/Pt1 cells overexpressing integrin alphaVbeta3 receptors xenografted in athymic Swiss mouse assessed as absence of disease at 30 mg/kg, iv administered every 4 days for 4 times measured up to 10 days; format: functional, organism-based; parameters: dose 30 mg/kg
[12] = Antitumor activity against cisplatin-resistant human IGROV1/Pt1 cells overexpressing integrin alphaVbeta3 receptors xenografted in athymic Swiss mouse assessed as tumor killing at 30 mg/kg, iv administered every 4 days for 4 times; format: functional, IGROV-1
[13] = Antitumor activity against cisplatin-resistant human IGROV1/Pt1 cells overexpressing integrin alphaVbeta3 receptors xenografted in athymic Swiss mouse assessed as tumor volume inhibition at 30 mg/kg, iv administered every 4 days for 4 times measured after 10 days relative to control; format: functional; details: IGROV-1
[14] = tested on: IGROV-1; assay: Induction of abberant mitosis in cisplatin-resistant human IGROV1/Pt1 cells overexpressing integrin alphaVbeta3 receptors xenografted in athymic Swiss mouse at 30 mg/kg, iv measured 24 hrs post fourth treatment by hematoxylin and eosin staining; format: functional, organism-based; parameters: dose 30 mg/kg
[15] = tested on: Mus musculus; assay: Toxicity in athymic Swiss mouse xenografted with cisplatin-resistant human IGROV1/Pt1 cells overexpressing integrin alphaVbeta3 receptors assessed as body weight loss at 30 mg/kg, iv administered every 4 days for 4 times; format: organism-based, IGROV-1; parameters: dose 30 mg/kg, route intravenous; details: in vivo, 96 h
[16] = tested on: IGROV-1; assay: Induction of abberant mitosis in cisplatin-resistant human IGROV1/Pt1 cells overexpressing integrin alphaVbeta3 receptors xenografted in athymic Swiss mouse at 30 mg/kg, iv measured 24 hrs post second treatment by hematoxylin and eosin staining; format: functional, organism-based; parameters: dose 30 mg/kg
[17] = Half life of the compound in glucose phosphate buffer at pH 7; format: physicochemical

Compound | pIC50 [1] | pIC50 [2] | pIC50 [3] | pIC50 [4] | pIC50 [5] | pIC50 [6] | pIC50 [7] | growth inhibition (GI) [8] | pIC50 [9] | Ratio IC50 [10] | Activity [11] | LCK [12] | inhibition in vivo at 30 mg/kg [13] [%] | Activity [14] | Activity [15] [%] | Activity [16] | half-life [17] [min]
CC(=O)O[C@H]1C(=O)[C@@]2(C)[C@H]([C@H](OC(=O)c3ccccc3)[C@]3(O)C[C@H](OC(=O)[C@H](OC(=O)CCC(=O)NCc4ccc(CN5C(=O)[C@H]6CNC(=O)[C@H](CC(=O)O)NC(=O)CNC(=O)[C@H](CCCN=C(N)N)NC(=O)C[C@H]5C(=O)N6)cc4)[C@@H](NC(=O)c4ccccc4)c4ccccc4)C(C)=C1C3(C)C)[C@]1(OC(C)=O)CO[C@@H]1C[C@@H]2O | 9.05 | 7.46 | 8.49 | 8.43 | 8.17 | 8.62 | 8.74 | Non-toxic | 7.12 |  |  |  |  |  |  |  | 
N=C(N)NCCC[C@@H]1NC(=O)C[C@H]2C(=O)N[C@H](CNC(=O)[C@H](CC(=O)O)NC(=O)CNC1=O)C(=O)N2Cc1ccccc1 | 8.12 |  |  |  |  |  |  |  | 6.67 | 20 |  |  |  |  |  |  | 
CC(=O)O[C@H]1C(=O)[C@@]2(C)[C@H]([C@H](OC(=O)c3ccccc3)[C@]3(O)C[C@H](OC(=O)[C@H](OC(=O)CCC(=O)NCc4ccc(CN5C(=O)[C@@H]6CC(=O)N[C@@H](CCCNC(=N)N)C(=O)NCC(=O)N[C@@H](CC(=O)O)C(=O)NC[C@@H]5C(=O)N6)cc4)[C@@H](NC(=O)c4ccccc4)c4ccccc4)C(C)=C1C3(C)C)[C@]1(OC(C)=O)CO[C@@H]1C[C@@H]2O | 8.07 | 7.75 | 8.24 | 7.73 | 8.66 | 8.80 | 8.70 | Non-toxic | 6.29 | 20 |  |  |  |  |  |  | 
CC(=O)O[C@H]1C(=O)[C@@]2(C)[C@H]([C@H](OC(=O)c3ccccc3)[C@]3(O)C[C@H](OC(=O)[C@H](OC(=O)CCC(=O)NCc4ccc(CN5C(=O)[C@@H]6CNC(=O)[C@H](CC(=O)O)NC(=O)CNC(=O)[C@H](CCCNC(=N)N)NC(=O)C[C@@H]5C(=O)N6)cc4)[C@@H](NC(=O)c4ccccc4)c4ccccc4)C(C)=C1C3(C)C)[C@]1(OC(C)=O)CO[C@@H]1C[C@@H]2O | 8.96 | 7.32 | 8.46 | 8.62 | 8.24 | 8.62 | 8.60 | Non-toxic | 7.66 |  |  |  |  |  |  |  | 
NC(N)=NCCC[C@@H]1NC(=O)C[C@H]2C(=O)N[C@H](CNC(=O)[C@H](CC(=O)O)NC(=O)CNC1=O)C(=O)N2Cc1ccc(CNC(=O)CCC(=O)O)cc1 | 8.39 |  |  |  |  |  |  |  | 7.12 |  |  |  |  |  |  |  | 
CC(=O)O[C@H]1C(=O)[C@@]2(C)[C@H]([C@H](OC(=O)c3ccccc3)[C@]3(O)C[C@H](OC(=O)[C@H](O)[C@@H](NC(=O)c4ccccc4)c4ccccc4)C(C)=C1C3(C)C)[C@]1(OC(C)=O)CO[C@@H]1C[C@@H]2O [PACLITAXEL] |  | 7.64 | 8.28 | 8.66 | 8.47 | 8.57 | 8.14 | Non-toxic |  |  | Active | 0.7 | 76 | inactive | 4 | Active | 
N=C(N)NCCC[C@@H]1NC(=O)C[C@@H]2C(=O)N(Cc3ccccc3)[C@@H](CNC(=O)[C@H](CC(=O)O)NC(=O)CNC1=O)C(=O)N2Cc1ccccc1 (stereo in doubt; 7a) | 9.70 |  |  |  |  |  |  |  |  |  |  |  |  |  |  |  | 
N=C(N)NCCC[C@@H]1NC(=O)C[C@H]2NC(=O)[C@H](CNC(=O)[C@H](CC(=O)O)NC(=O)CNC1=O)N(Cc1ccc(CN)cc1)C2=O.O=C(O)C(F)(F)F | 7.58 | < 5.92 | < 4.94 | < 4.74 | < 5.20 | < 4.94 | < 4.94 | Non-toxic | < 5.30 |  |  |  |  |  |  |  | 
CC(=O)O[C@H]1C(=O)[C@@]2(C)[C@H]([C@H](OC(=O)c3ccccc3)[C@]3(O)C[C@H](OC(=O)[C@H](OC(=O)CCC(=O)N[C@@H](CCC(=O)NCCCC[C@@H]4NC(=O)[C@@H](Cc5ccccc5)NC(=O)[C@H](CC(=O)O)NC(=O)CNC(=O)[C@H](CCCNC(=N)N)NC4=O)C(=O)NCCCC[C@@H]4NC(=O)[C@@H](Cc5ccccc5)NC(=O)[C@H](CC(=O)O)NC(=O)CNC(=O)[C@H](CCCNC(=N)N)NC4=O)[C@@H](NC(=O)c4ccccc4)c4ccccc4)C(C)=C1C3(C)C)[C@]1(OC(C)=O)CO[C@@H]1C[C@@H]2O |  |  |  |  |  |  |  |  |  |  |  |  |  |  |  |  | 120
